Reference: patent publication US20090036540A1, “Guanylhydrazones in Methods of Treatment or Diagnosis as Modulators of Signal Transduction” (Cytokine PharmaSciences, Inc., priority 2003, published 2009)
“Also recorded” adds a separate entry of the source.

Assays:
[1] = test system: PBMCs; assay: Western blot of LPS-stimulated PBMCs for phosphorylated proteins; format: cell-based, human; details: 1.0 μM CNI-1493 pre-incubation, LPS 15 minutes
Procedure: Peripheral Blood Mononuclear Cells (PBMCs) were isolated from peripheral blood from healthy volunteers using standard density-gradient centrifugation over Ficoll-Paque Plus (Amersham Pharmacia Biotech AB, Uppsala, Sweden) after washing in resuspension in IMDM supplemented with 10% FBS, penicillin, streptomycin and amphotericin (hereafter referred to as complete IMDM).
For western blot samples, […] PBMCs were suspended in 1 ml media and LPS stimulations were 15 minute incubations (37° C., 5% CO2) with 10 ng/ml LPS or pre-incubated with 1.0 μM CNI-1493 (Cytokine PharmaSciences, Inc.). Stimulations were terminated by an ice-cold PBS wash. Cells were subsequently pelleted, lysed, denatured (5 minutes at 95° C.) and stored at −20° C. 10^6 PBMCs lysed in 200 μl SDS Sample Buffer (62.5 mM Tris-HCl (pH 6.8 at 25° C.), 2% w/v SDS, 10% glycerol, 50 mM DTT, 0.01% w/v bromophenol blue), 25 μl of which was separated on 12% SDS-PAGE gels and transferred to nitrocellulose membranes. Antibodies for immunoblotting were from Cell Signaling and included Phospho-p38 MAP Kinase (cat #9211), Phospho-p44/42 MAP Kinase (cat #9101), Phospho-PKCzeta/lambda (cat #9378), Phospho-MEK1/2 (cat #9121), Phospho-Raf (cat #9424) and Phospho-SAPK/JNK (cat #9255).

[2] = test system: Raf kinase; assay: Raf in vitro kinase assay (pMek immunoblot); format: biochemical; details: active Raf kinase, 1 μM Semapimod for 5 and 10 minutes
Procedure: A commercially available in vitro kinase kit (Upstate, cat#: 17-360) was used to study the direct effect of Semapimod on Raf kinase activity. […] Furthermore, active Raf together with Mek, without Semapimod, served as a positive control. Active Raf without the Mek-substrate, left untreated, served as a negative control. The in vitro kinase reaction was performed at 30 C.° for 20 minutes. Sample buffer was added to terminate the reaction, and loaded on […] SDS-PAGE. The immunoblot was analyzed for pMek expression.
Pan-Raf protein expression was analyzed to test for equal loading. Two experiments were performed and similar results were obtained.

[3] = test system: pMek1/2; assay: Immunohistochemistry of biopsies from Crohn's disease patients for pMek1/2 expression; format: in vivo, human; details: before vs after treatment
Procedure: Biopsies obtained from Crohn's disease patients (before and after Semapimod treatment) who participated in the Semapimod-pilot study in the AMC, were analyzed by immunohistochemistry.
Biopsies obtained from Crohn's disease patients (before and after treatment) who participated in the Semapimod-pilot study performed in our department, were analyzed for pMek1/2 expression (the substrate of Raf) by immunohistochemistry (FIGS. 8-9).

[4] = test system: 4/4 macrophages; assay: Cytotoxic effect in 4/4 macrophages; format: cell-based, murine; details: Semapimod concentrations ≦1 μM
[5] = steroid- and infliximab-resistant Crohn's disease; cited from earlier work

Raf kinase activity [2]: inhibited | pMek1/2 expression in in vitro kinase assay ([2]; inactive Mek-substrate): reduced pMek1/2 expression
SMILES: C/C(=N\NC(=N)N)c1cc(NC(=O)CCCCCCCCC(=O)Nc2cc(/C(C)=N/NC(=N)N)cc(/C(C)=N/NC(=N)N)c2)cc(/C(C)=N/NC(=N)N)c1 [Semapimod]
MEK phosphorylation [1]: abolishes MEK phosphorylation | lipopolysaccharide-dependent phosphorylation of the PKC site in c-Raf [1]: does not interfere | pMek1/2 expression in biopsies, responders ([3]; Crohn's disease patients who responded (n=5), p=0.0348): significant decrease | pMek1/2 expression in biopsies, nonresponder ([3]; one nonresponder (patient 012)): increased pMek1/2 expression; also recorded: not affected | cytotoxic effect [4]: did not have a cytotoxic effect | clinical effect in Crohn's disease [5]: induces clinical remission and endoscopal healing
